{"source": "paper PMC10541198", "about": "“Specific quinone reductase 2 inhibitors reduce metabolic burden and reverse Alzheimer’s disease phenotype in mice” (The Journal of Clinical Investigation, 2023)", "tested_on": "Iba1", "assay": "IHC of Iba1 (microglia activation) in 5xFAD brain sections", "assay_type": "in vivo, mouse", "details": "for Iba1 normalized volume (individual mice): CA1, 5xFAD 1 month; for Figure 9D, IHC signal: individual animals; for Iba1 vs vehicle: cortex, 5xFAD 1 month", "from_the_text": "Following the behavioral experiments, we assessed brain pathologies associated with AD present in the 5xFAD mice ([37]). Therefore, 5 days following the last behavioral experiment, and 1 month after the start of YB-537 consumption, mice were sacrificed, and coronal brain sections were used for IHC. Since the CA1 region of the hippocampus is affected during AD pathogenesis ([37]), and this brain region is involved in the behavioral paradigms used here, we acquired images of CA1. This was done with an Olympus IX83 confocal microscope using the same settings, antibodies, and exposures in all mice. Images were analyzed using Imaris (Bitplane; see methods). For each mouse, 3 coronal sections were used per antibody. In each section, the same region of CA1 was acquired, using the same image frame size and resolution, at all possible depths of the section — using a Z-stack of the whole section — to allow measurement of the fluorescent antibody marker volume, which was normalized to the brain volume from which it was taken. First, we measured oxidative stress, as indicated by 4-HNE ([38]) (Abcam, ab48506).\nPerfused and fixed brain slices were blocked with 10% normal donkey serum (DNS) and 0.2% triton (Sigma-Aldrich) in PBS. Antibodies, including 4-HNE (AbCam, ab48506), Iba1 (AbCam, ab5076), AT-8 (Thermo, MN1020), Amyloid β (AbCam, ab201060), diluted in PBS with 10% DNS, were incubated at 4°C overnight. Secondary antibodies including donkey-anti-goat Alexa Fluor 568 (AbCam, ab175704), donkey-anti-mouse Cy 5 (Jackson Immuno Research, 715-175-151), and donkey-anti-rabbit DyLight 488 (AbCam, ab98488) all diluted 1:500 in PBS with 1% BSA, were applied to the slices at RT for 2 hours the next day. Slices were mounted onto glass slides using DAPI containing Vectashield (H-1200). Images were taken using a confocal microscope (Olympus IX83). Three slices were used per mouse per antibody. Tiling images of the dorsal CA1 and cortex (Bregma: –1.58mm to –2.30mm) were taken using ×20 objective, acquiring a Z-stack of the whole section. Analysis of the images was done blind by an experimenter unaware of the experimental conditions or details, using Imaris (Bitplane) software. A surface reconstruction module was used to extract the data as volumes of the used markers (4-HNE, phospho-tau, amyloid β, GFAP, and Iba1). Marker volume and intensity were normalized to the corresponding brain volume. The normalized value was averaged for each triplicate and presented here. […]\nBrains were then briefly removed and placed in chilled, 4% PFA for 48 h, f oll owe d by immersion in 30% sucrose in 0.1 M PBS for a furt her 48 h. Bra i ns wer e t h e n stored at -80°C, until t he y were sliced into 40µm coronal sections usinga Lei ca CM 1950cryostat. Sli ces were then washed x3 in PBS and bl oc ke d for 1 h at RT using 10% normal donkey serum (DNS) and 0.2% triton (Sigma-Aldrich) in PBS. Antibodies, including 4- HNE (1:500, AbCam, ab48506), Iba1 (1:2,000, AbCam, ab5076), GFAP (Abcam, ab53554), phospho- tau (1:1,000, Thermo, MN1020) and amyloid β (1:1,000, AbCam, ab201060) diluted in PBS with 10% DNS were incubated at 4°C overnight. The next day, the slices were washed x3 times in PBS, and secondary antibodies including donkey anti goat A l e x a Fluor 568 (AbCam, ab175704), donkey anti-mouse Cy 5 (Jackson Immuno Research, 715- 175- 151) and donkey anti-rabbit DyLight 488 (AbCam, ab98488) all diluted 1:500 in PBS with 1% BSA, were applied to the slices at RT for 2 h. Following the incubation, the slices were washed x3 times in PBS, mounted onto gl ass slides, were uniformly covered in DAPI containing Vectashield (H-1200) and coverslips were a dde d. […]", "note": "“And” between values parts separate entries of the source, which are not always exact repeats. Identical values can stand only once.", "data": [{"molecule": "Cc1ccc(-c2cn3cccc(C)c3n2)cc1S(=O)(=O)N1CCNCC1", "note": "[YB-537]", "values": [{"measurement": "Iba1 normalized volume (individual mice)", "setting": "Females", "result": "0.0305 and 0.0266 and 0.0346 and 0.0314 and 0.0200 and 0.0191 and 0.0158"}, {"measurement": "Iba1 normalized volume (individual mice)", "setting": "Males", "result": "0.0473 and 0.0384 and 0.0542 and 0.0369 and 0.0352 and 0.0318 and 0.0209 and 0.0414 and 0.0362"}, {"measurement": "Iba1 normalized volume (individual mice)", "setting": "Males + Females", "result": "0.0473 and 0.0384 and 0.0542 and 0.0369 and 0.0352 and 0.0314 and 0.0200 and 0.0191 and 0.0158 and 0.0305 and 0.0266 and 0.0346 and 0.0318 and 0.0209 and 0.0414 and 0.0362"}, {"measurement": "Figure 9D, IHC signal", "setting": "Cortex", "result": "0.0209 and 0.0186 and 0.0218 and 0.0206 and 0.0305 and 0.0198 and 0.0227"}, {"measurement": "Figure 9D, IHC signal", "setting": "Hippocampus", "result": "0.0213 and 0.0206 and 0.0202 and 0.0175 and 0.0174 and 0.0220 and 0.0296 and 0.0197"}, {"measurement": "Iba1 vs vehicle", "setting": "females", "result": "significantly reduced"}, {"measurement": "Iba1 vs vehicle", "setting": "males", "result": "insignificantly reduced"}, {"measurement": "Iba1 vs vehicle", "setting": "total population", "result": "significantly reduced"}]}]}
